According to patent USRE44543E1, “Naphthalenic compounds as termite bait toxicants” (priority 2002, dated 2013):

Tested on: Reticulitermes spp.
Test: Field evaluation of bait matrix-NHA in underground Exterra bait stations, Past Christian, Mississippi
Format: in vivo, Reticulitermes flavipes
Protocol: Underground Exterra bait stations (Ensystex, Fayetteville, N.C.) were placed according to manufacturer directions around 20 houses in a heavily Reticulitermes spp. infested neighborhood surrounded by mainly pine forest in Past Christian, Miss. The stations were placed, approximately 20 feet apart and 5 feet away from the outside wall of the house. Monthly inspections were conducted to determine termite activity. Once termites were found in the station, 150 g of the ARS bait matrix (see Example 2) containing 250 ppm NHA was placed in the station for the first year of the experiment. The dose was increased in the second year to 500 ppm because of the constant movement of termites from the forest area to the stations. The bait matrix-NHA was prepared as above and exposed to the termites contained in the Exterra bait station, consecutively monthly inspections were conducted and bait matrix-NHA was added as required. Data on bait consumption, temperature of the soil and time to kill the colony was recorded. Reticulitermes flavipes were very abundant in the study site. The distribution of the infestation was in patches. For the typical infested house, termites were found in 3 of 6 stations. For this type of environmental setting, 600 g of bait matrix which is equivalent to 240 mg of NHA was required to kill the colony. It took about 9 months (from September-May) for the bait matrix to show its effectiveness which was evaluated by the presence of dead termites on the surface of the bait matrix container and interceptors.

[1] = date 01/29 (17th of 18, second winter)
[2] = date 02/26 (18th of 18, second winter)
[3] = typical infested house, termites in 3 of 6 stations

SMILES: O=C1c2cccc3cccc(c23)C(=O)N1O [NHA, N-hydroxynaphthalimide]
- time for the bait matrix to show its effectiveness (dead termites on bait container and interceptors) (September-May): about 9 months
- Active Stations Number (date 01/29 (5th of 18)): 6
- Active Stations Percentage (date 01/29 (5th of 18)): 24.0%
- Bait (Cum. weight in g) Consumed (date 01/29 (5th of 18)): 1,500 g
- Active Stations Number [1]: 11
- Active Stations Percentage [1]: 24.4%
- Bait (Cum. weight in g) Consumed [1]: 11,850 g
- Active Stations Number (date 02/26 (6th of 18)): 12
- Active Stations Percentage (date 02/26 (6th of 18)): 50.0%
- Bait (Cum. weight in g) Consumed (date 02/26 (6th of 18)): 1,500 g
- Active Stations Number [2]: 15
- Active Stations Percentage [2]: 33.3%
- Bait (Cum. weight in g) Consumed [2]: 12,600 g
- Active Stations Number (date 03/27 (7th of 18)): 13
- Active Stations Percentage (date 03/27 (7th of 18)): 56.5%
- Bait (Cum. weight in g) Consumed (date 03/27 (7th of 18)): 1,500 g
- Active Stations Number (date 05/01 (8th of 18)): 16
- Active Stations Percentage (date 05/01 (8th of 18)): 55.2%
- Bait (Cum. weight in g) Consumed (date 05/01 (8th of 18)): 3,150 g
- Active Stations Number (date 05/29 (9th of 18)): 11
- Active Stations Percentage (date 05/29 (9th of 18)): 36.7%
- Bait (Cum. weight in g) Consumed (date 05/29 (9th of 18)): 3,750 g
- Active Stations Number (date 06/26 (10th of 18)): 16
- Active Stations Percentage (date 06/26 (10th of 18)): 50.0%
- Bait (Cum. weight in g) Consumed (date 06/26 (10th of 18)): 4,800 g
- Active Stations Number (date 07/31 (11th of 18)): 12
- Active Stations Percentage (date 07/31 (11th of 18)): 33.3%
- Bait (Cum. weight in g) Consumed (date 07/31 (11th of 18)): 6,000 g
- Active Stations Number (date 08/28 (12th of 18)): 17
- Active Stations Percentage (date 08/28 (12th of 18)): 47.2%
- Bait (Cum. weight in g) Consumed (date 08/28 (12th of 18)): 7,200 g
- Active Stations Number (date 09/25 (13th of 18)): 21
- Active Stations Percentage (date 09/25 (13th of 18)): 52.5%
- Bait (Cum. weight in g) Consumed (date 09/25 (13th of 18)): 7,950 g
- Active Stations Number (date 09/26 (1st of 18), NHA 250 ppm first year, 500 ppm second year): 22
- Bait (Cum. weight in g) Consumed (date 09/26 (1st of 18), from fully consumed bait bags): 0.0 g
- Active Stations Percentage (date 09/26 (1st of 18), of cumulative stations ever active): 95.7%
- Active Stations Number (date 10/27 (2nd of 18)): 10
- Active Stations Percentage (date 10/27 (2nd of 18)): 43.5%
- Bait (Cum. weight in g) Consumed (date 10/27 (2nd of 18)): 600 g
- Active Stations Number (date 11/02 (14th of 18)): 18
- Active Stations Percentage (date 11/02 (14th of 18)): 42.9%
- Bait (Cum. weight in g) Consumed (date 11/02 (14th of 18)): 10,800 g
- Active Stations Number (date 11/20 (3rd of 18)): 10
- Active Stations Percentage (date 11/20 (3rd of 18)): 41.7%
- Bait (Cum. weight in g) Consumed (date 11/20 (3rd of 18)): 1,200 g
- Active Stations Number (date 11/27 (15th of 18)): 13
- Active Stations Percentage (date 11/27 (15th of 18)): 28.9%
- Bait (Cum. weight in g) Consumed (date 11/27 (15th of 18)): 11,250 g
- Active Stations Number (date 12/18 (4th of 18)): 8
- Active Stations Percentage (date 12/18 (4th of 18)): 33.3%
- Bait (Cum. weight in g) Consumed (date 12/18 (4th of 18)): 1,500 g
- Active Stations Number (date 12/29 (16th of 18)): 13
- Active Stations Percentage (date 12/29 (16th of 18)): 28.9%
- Bait (Cum. weight in g) Consumed (date 12/29 (16th of 18)): 11,850 g
- NHA required to kill the colony (equivalent of bait matrix) [3]: 240 mg
- bait matrix required to kill the colony [3]: 600 g
